Ends that are not written are not given here.
What was measured:
Type in all cases: cell-based
APJ receptor [1] = biological target: T1, APJ receptor (Homo sapiens, UniProt P35414); assay: FLIPR calcium assay in CHO cells transiently cotransfected with APJ receptor and G protein α subunits (FIG. 3); parameters: expressed in transfected cells; host or cells: CHO (Chinese hamster ovary), transient; settings: 1 μmol/l peptide; CHO cells cotransfected with APJ and α16 or αΔ6qi4myr; response required chimeric/promiscuous Gα subunit
T1 sequence (P35414 1-380): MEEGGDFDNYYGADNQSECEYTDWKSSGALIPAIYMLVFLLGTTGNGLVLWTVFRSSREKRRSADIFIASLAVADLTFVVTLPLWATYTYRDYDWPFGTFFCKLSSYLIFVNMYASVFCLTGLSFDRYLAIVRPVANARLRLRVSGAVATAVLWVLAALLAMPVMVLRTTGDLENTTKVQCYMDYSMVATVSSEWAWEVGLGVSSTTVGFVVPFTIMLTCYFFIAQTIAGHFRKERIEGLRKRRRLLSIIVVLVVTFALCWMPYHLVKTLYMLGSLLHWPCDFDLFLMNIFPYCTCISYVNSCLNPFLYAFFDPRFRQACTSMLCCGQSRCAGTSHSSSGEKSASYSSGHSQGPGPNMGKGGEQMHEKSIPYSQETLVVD
Source text: The APJ receptor was transiently cotransfected in CHO cells (Chinese hamster ovary cells) with vector DNA as a control (white column) or the G protein α subunits α16 (black column) and αΔ6qi4myr (striped column) according to methods known to the one skilled in the art. […] Data presented are mean values (fluorescence intensity units, FIU) from 2 individual experiments performed in duplicate.
(§1) The FLIPR calcium assay provides a suitable method for detecting changes in intracellular calcium concentration. It is a fluorescence-based assay which was performed according to the manufacture's instructions (Molecular Devices, CA, USA). Briefly summarized, cells were seeded on 96- or 384-well plates Loading Buffer was added to the cells and plates incubated for 1 hour at 37° C. After incubation cells were stimulated with the prevailing APJ receptor ligand or none. Thereafter intracellular calcium concentration was measured in the FLIPR according to the FLIPR system manual.

APJ receptor [2] = biological target: T1, APJ receptor; assay: FLIPR calcium assay, EC50 of apelin peptides in HEK293-PSCi4qi4-APJ cells; parameters: expressed in transfected cells; host or cells: HEK293-PSCi4qi4 (HEK 293 stably expressing Gαi4qi4); settings: intracellular calcium
Procedure: as §1

APJ receptor [3] = biological target: T1, APJ receptor; assay: FLIPR calcium assay in stably transfected HEK 293 cells overexpressing G protein and APJ receptor (FIG. 4); parameters: expressed in transfected cells; host or cells: HEK 293; settings: 50 nmol/l, 200 nmol/l, 1 μmol/l; HEK 293 stably cotransfected with G protein and APJ; response required APJ receptor
Procedure: Data presented are mean values (fluorescence intensity units, FIU) from 2 individual experiments performed in duplicate.
as §1

intracellular calcium release via the APJ receptor (APJ receptor [1]) | EC50 (APJ receptor [2]; first of two independent measurements) | EC50 (APJ receptor [2]; second of two independent measurements) | Molecule | intracellular calcium release via the APJ receptor (APJ receptor [3])
induced intracellular calcium release | 51 nM | 27 nM | LVQPRGSRNGPGPWQGGRRKFRRQRPRLSHKGPMPF [Apelin-36] | induced intracellular calcium release via the APJ receptor in a dose-dependent manner
induced intracellular calcium release |  |  | CSCC[C@H](NC(=O)[C@@H]1CCCN1C(=O)CNC(=O)[C@H](CCCCN)NC(=O)[C@H](Cc1c[nH]cn1)NC(=O)[C@H](CO)NC(=O)[C@H](CC(C)C)NC(=O)[C@H](CCCNC(=N)N)NC(=O)[C@@H]1CCCN1C(=O)[C@@H](N)CCCNC(=N)N)C(=O)N1CCC[C@H]1C(=O)N[C@@H](Cc1ccccc1)C(=O)O [Apelin-12] | 
